Patent US20230399327A1, “HIGH ACTIVITY HPK1 KINASE INHIBITOR” (ADLAI NORTYE BIOPHARMA CO., LTD., priority 2020, published 2023)

biological target: HPK1 kinase (Homo sapiens (Human), UniProt Q92918); assay: HPK1 kinase activity inhibition (ADP-Glo Kinase Assay); type: biochemical; details: HPK1, MBP substrate, ATP, 25° C. 60 min
Protocol: Test Example 1: Detection of Compound's Ability to Inhibit HPK1 Kinase Activity (Method 1)
The specific operation is as follows: configure the enzymatic reaction system buffer (10 mM MOPS, pH 7.2, 5 mM β-glycerol-phosphate, 10 mM MgCl2, 0.8 mM EDTA, 2 mM EGTA, 0.1 mM DTT); the test compound (1 mM the compound stock solution in DMSO) was diluted with buffer to the highest concentration of 60 uM (containing 6% DMSO), and the compound with a concentration of 60 μM was initially diluted 5 times with a buffer containing 6% DMSO for a total of 8 points of gradient concentration; then dilute HPK1 kinase to 30 nM in buffer. Add 2 μl of HPK1 kinase diluent to each well of a Greiner 384-well microplate (Cat. No. 784075), and add 2 μl of buffer to the control well; add 1 μl of the diluted compound to the reaction well after brief centrifugation, and add 1 μl buffer solution containing 6% DMSO to the control well; after short centrifugation, place in a 25° C. constant temperature incubator (Shanghai Yiheng Scientific Instrument Co., Ltd., Cat. No.: LRH-150) and incubate for 20 minutes. Add 3 μl of reaction substrate (10 μM MBP and 20 μM ATP dissolved in distilled water) to each well, briefly centrifuge and incubate in a constant temperature incubator at 25° C. for 60 min, and use ADP-Glo Kinase Assay Kit to detect the enzymatic reaction activity, ADP-Glo Kinase Assay Kit detection is carried out according to the operating instructions of the kit. Data are described using the half maximal inhibitory concentration IC50 of the compound.

Sequence of HPK1 kinase (Q92918 whole entry): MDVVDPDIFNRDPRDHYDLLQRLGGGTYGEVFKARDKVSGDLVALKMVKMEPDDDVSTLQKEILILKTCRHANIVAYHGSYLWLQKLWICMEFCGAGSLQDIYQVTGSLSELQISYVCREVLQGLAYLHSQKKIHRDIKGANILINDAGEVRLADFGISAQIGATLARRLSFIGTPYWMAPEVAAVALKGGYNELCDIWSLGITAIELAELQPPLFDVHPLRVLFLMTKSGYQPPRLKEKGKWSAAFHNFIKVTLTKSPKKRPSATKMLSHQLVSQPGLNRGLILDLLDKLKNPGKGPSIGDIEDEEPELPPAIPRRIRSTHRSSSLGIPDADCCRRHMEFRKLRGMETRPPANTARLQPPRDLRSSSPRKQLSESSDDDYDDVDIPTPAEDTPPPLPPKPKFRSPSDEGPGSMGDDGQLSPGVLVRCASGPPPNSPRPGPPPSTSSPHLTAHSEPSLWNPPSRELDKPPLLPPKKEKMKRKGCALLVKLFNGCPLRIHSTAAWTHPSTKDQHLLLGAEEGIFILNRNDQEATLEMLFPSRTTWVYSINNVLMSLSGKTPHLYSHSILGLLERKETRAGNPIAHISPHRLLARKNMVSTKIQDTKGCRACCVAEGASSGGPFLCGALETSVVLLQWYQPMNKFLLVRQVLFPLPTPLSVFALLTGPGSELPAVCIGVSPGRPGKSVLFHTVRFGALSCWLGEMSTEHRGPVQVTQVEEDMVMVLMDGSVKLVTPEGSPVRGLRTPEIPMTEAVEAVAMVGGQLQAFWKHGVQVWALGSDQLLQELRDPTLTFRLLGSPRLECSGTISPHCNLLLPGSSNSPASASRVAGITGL

IC50 | Compound
3.49 nM | COc1nc2c(cc1Nc1ncc3cccc(-c4cccnc4)c3n1)CN(C)CC2 [Example 9, N-(2-methoxy-6-methyl-5,6,7,8-tetrahydro-1,6-naphthyridin-3-yl)-8-(pyridin-3-yl)quinazoline-2-amine]
1.48 nM | COc1nc2c(cc1Nc1ncc3cccc(-c4ccc(=O)n(C)c4)c3n1)CN(C)CC2 [Example 10, 5-(2-((2-methoxy-6-methyl-5,6,7,8-tetrahydro-1,6-naphthyridin-3-yl)amino)quinazolin-8-yl)-1-Methylpyridin-2(1H)-one]
1.92 nM | CNC(=O)c1cccc(-c2cccc3cnc(Nc4cc5c(nc4OC)CCN(C)C5)nc23)c1 [Example 14, 3-(2-((2-methoxy-6-methyl-5,6,7,8-tetrahydro-1,6-naphthyridin-3-yl)amino)quinazolin-8-yl)-N-methylbenzamide]
< 0.1 nM | COc1nc2c(cc1Nc1ncc3cccc(-c4ccccc4F)c3n1)CN(C)CC2 [Example 4, 8-(2-fluorophenyl)-N-(2-methoxy-6-methyl-5,6,7,8-tetrahydro-1,6-naphthyridin-3-yl)quinazoline-2-amine]
1.74 nM | C=C(C)c1cccc2cnc(Nc3cc4c(nc3OC)CCN(C)C4)nc12 [Example 16, N-(2-methoxy-6-methyl-5,6,7,8-tetrahydro-1,6-naphthyridin-3-yl)-8-(prop-1-en-2-yl) quinazolin-2-amine]
< 0.1 nM | COc1nc2c(cc1Nc1ncc3cccc(-c4cccc(Cl)n4)c3n1)CN(C)CC2 [Example 40, 8-(6-chloropyridin-2-yl)-N-(2-methoxy-6-methyl-5,6,7,8-tetrahydro-1,6-naphthyridin-3-yl)quinazolin-2-amine]
< 0.1 nM | COc1nc2c(cc1Nc1ncc3cccc(-c4ccccc4SC)c3n1)CN(C)CC2 [Example 19, N-(2-methoxy-6-methyl-5,6,7,8-tetrahydro-1,6-naphthyridin-3-yl)-8-(2-(methylthio)phenyl) Quinazolin-2-amine]
< 0.1 nM | COc1nc2c(cc1Nc1ncc3cccc(-c4cnn(C)c4C)c3n1)CN(C)CC2 [Example 53, 8-(1,5-dimethyl-1H-pyrazol-4-yl)-N-(2-methoxy-6-methyl-5,6,7,8-tetrahydro-1,6-Naphthyridin-3-yl)quinazolin-2-amine]
< 0.1 nM | COc1nc2c(cc1Nc1ncc3cccc(C4=CCN(C(C)=O)CC4)c3n1)CN(C)CC2 [Example 17, 1-(4-(2-((2-methoxy-6-methyl-5,6,7,8-tetrahydro-1,6-naphthyridin-3-yl)amino)quinazoline-8-yl)-3,6-dihydropyridin-1(2H)-yl)ethan-1-one]
4.27 nM | COc1nc2c(cc1Nc1ncc3cccc(-c4ccccn4)c3n1)CN(C)CC2 [Example 37, N-(2-methoxy-6-methyl-5,6,7,8-tetrahydro-1,6-naphthyridin-3-yl)-8-(pyridin-2-yl)quinazoline-2-amine]
< 0.1 nM | COc1ccccc1-c1cccc2cnc(Nc3cc4c(nc3OC)CCN(C)C4)nc12 [Example 5, N-(2-methoxy-6-methyl-5,6,7,8-tetrahydro-1,6-naphthyridin-3-yl)-8-(2-methoxyphenyl)quinazole Lin-2-amine]
1.54 nM | COc1nc2c(cc1Nc1ncc3cccc(C4CCOCC4)c3n1)CN(C)CC2 [Example 11, N-(2-methoxy-6-methyl-5,6,7,8-tetrahydro-1,6-naphthyridin-3-yl)-8-(tetrahydro-2H-pyran-4-base) quinazolin-2-amine]
< 0.1 nM | COc1cccc(-c2cccc3cnc(Nc4cc5c(nc4OC)CCN(C)C5)nc23)c1 [Example 6, N-(2-methoxy-6-methyl-5,6,7,8-tetrahydro-1,6-naphthyridin-3-yl)-8-(3-methoxyphenyl)quinazole Lin-2-amine]
< 0.1 nM | COc1cccc(F)c1-c1cccc2cnc(Nc3cc4c(nc3OC)CCN(C)C4)nc12 [Example 21, 8-(2-fluoro-6-methoxyphenyl)-N-(2-methoxy-6-methyl-5,6,7,8-tetrahydro-1,6-naphthyridine-3-base) quinazolin-2-amine]

The remaining lines, values behind:

Compound | IC50
COc1nc2c(cc1Nc1ncc3ccnc(NCC(C)(C)C)c3n1)CN(C)CC2 [Example 41, N2-(2-methoxy-6-methyl-5,6,7,8-tetrahydro-1,6-naphthyridin-3-yl)-N8-neopentylpyrido[3,4-d]pyrimidine-2,8-diamine] | < 0.1 nM
CCOc1nc2c(cc1Nc1ncc3cccc(-c4ccc(=O)n(C)c4)c3n1)CN(C)CC2 [Example 54, 5-(2-((2-ethoxy-6-methyl-5,6,7,8-tetrahydro-1,6-naphthyridin-3-yl)amino)quinazolin-8-yl)-1-methylpyridin-2(1H)-one] | 21.7 nM
CN1CCc2c(cc(Nc3ncc4ccnc(N5CCOCC5)c4n3)c(=O)n2C)C1 [Example 69, 1,6-dimethyl-3-((8-morpholinopyrido[3,4-d]pyrimidin-2-yl)amino)-5,6,7,8-tetrahydro-1,6-naphthyridin-2(1H)-one] | 2.19 nM
COc1nc2c(cc1Nc1ncc3cccc(-c4ccccc4OC(F)(F)F)c3n1)CN(C)CC2 [Example 18] | < 0.1 nM
CN1CCc2c(cc(Nc3ncc4ccnc(N5CCCCC5)c4n3)c(=O)n2C)C1 [Example 68, 1,6-dimethyl-3-((8-(piperidin-1-yl)pyrido[3,4-d]pyrimidin-2-yl)amino)-5,6,7,8-tetrahydro-1,6-naphthyridin-2(1H)-one] | 1.47 nM
COc1nc2c(cc1Nc1ncc3ccnc(N4CCCCC4)c3n1)CN(C)CC2 [Example 33, N-(2-methoxy-6-methyl-5,6,7,8-tetrahydro-1,6-naphthyridin-3-yl)-8-(piperidin-1-yl) pyrido[3,4-d]pyrimidin-2-amine] | 0.52 nM
CN1CCc2[nH]c(=O)c(Nc3ncc4ccnc(C5=CCCCC5)c4n3)cc2C1 [Example 75, 3-((8-(cyclohex-1-en-1-yl)pyrido[3,4-d]pyrimidin-2-yl)amino)-6-methyl-5,6,7,8-tetra hydro-1,6-naphthyridin-2(1H)-one] | < 0.1 nM
CN1CCc2[nH]c(=O)c(Nc3ncc4ccnc(N5CCOCC5)c4n3)cc2C1 [Example 49, 6-methyl-3-((8-morpholinopyrido[3,4-d]pyrimidin-2-yl)amino)-5,6,7,8-tetrahydro-1,6-naphthyridine-2(1H)-one] | 26.9 nM
CCOc1nc2c(cc1Nc1ncc3ccnc(N[C@H](C)C(C)(C)C)c3n1)CN(C)CC2 [Example 58, (R)—N8-(3,3-dimethylbut-2-yl)-N2-(2-ethoxy-6-methyl-5,6,7,8-tetrahydro-1,6-Naphthyridin-3-yl)pyrido[3,4-d]pyrimidine-2,8-diamine] | < 0.1 nM
COc1ccccc1-c1cccc2cnc(Nc3cc4c(nc3C)CCN(C)C4)nc12 [Example 46, N-(2,6-dimethyl-5,6,7,8-tetrahydro-1,6-naphthyridin-3-yl)-8-(2-methoxyphenyl)quinazoline-2-amine] | 0.15 nM
Cn1c2c(cc(Nc3ncc4ccnc(N5CCSCC5)c4n3)c1=O)CN(CCO)CC2 [Example 84, 6-(2-hydroxyethyl)-1-methyl-3-((8-thiomorpholinopyrido[3,4-d]pyrimidin-2-yl)amino)-5,6,7,8-tetrahydro-1,6-naphthyridin-2(1H)-one] | 0.43 nM
CN1CCc2c(cc(Nc3ncc4ccnc(C5=CCCCC5)c4n3)c(=O)n2C)C1 [Example 81, 3-((8-(cyclohex-1-en-1-yl)pyrido[3,4-d]pyrimidin-2-yl)amino)-1,6-dimethyl-5,6,7,8-tetrahydro-1,6-naphthyridin-2(1H)-one] | 0.23 nM
CCOc1nc2c(cc1Nc1ncc3ccnc(N[C@@H](CO)C(C)(C)C)c3n1)CN(C)CC2 [Example 57, (R)-2-((2-((2-ethoxy-6-methyl-5,6,7,8-tetrahydro-1,6-naphthyridin-3-yl)amino)pyrido[3,4-d]pyrimidin-8-yl)amino)-3,3-dimethylbutan-1-ol] | 0.25 nM
COc1nc2c(cc1Nc1ncc3ccnc(-c4ccc(=O)n(C)c4)c3n1)CN(C)CC2 [Example 27, 5-(2-((2-methoxy-6-methyl-5,6,7,8-tetrahydro-1,6-naphthyridin-3-yl)amino)pyrido[3,4-d]pyrimidino-8-yl)-1-methylpyridin-2(1H)-one] | 16.2 nM
CN1CCc2[nH]c(=O)c(Nc3ncc4ccnc(N5CCCCC5)c4n3)cc2C1 [Example 63, 6-methyl-3-((8-(piperidin-1-yl)pyrido[3,4-d]pyrimidin-2-yl)amino)-5,6,7,8-tetrahydro-1,6-naphthyridin-2(1H)-one] | 31.3 nM
COc1nc2c(cc1Nc1ncc3cccc(Cc4ccccc4)c3n1)CN(C)CC2 [Example 59, 8-benzyl-N-(2-methoxy-6-methyl-5,6,7,8-tetrahydro-1,6-naphthyridin-3-yl)quinazolin-2-amine] | < 0.1 nM
COc1ccccc1-c1cccc2cnc(Nc3cnc4c(c3)CN(C)CC4)nc12 [Example 45, 8-(2-methoxyphenyl)-N-(6-methyl-5,6,7,8-tetrahydro-1,6-naphthyridin-3-yl)quinazolin-2-amine] | < 0.1 nM
CCOc1nc2c(cc1Nc1ncc3cccc(-c4ccccc4OC)c3n1)CN(C)CC2 [Example 44, N-(2-ethoxy-6-methyl-5,6,7,8-tetrahydro-1,6-naphthyridin-3-yl)-8-(2-methoxyphenyl)quinazolin-2-amine] | < 0.1 nM
